From the supplement of paper PMC10307832

Legend:
Assay in all cases: relative viability (nuclei count vs DMSO), 5 days (fraction); higher = more cells survive
Mirin + Tozasertib = compound: N=C1NC(=O)/C(=C/c2ccc(O)cc2)S1 [Mirin] + Cc1cc(Nc2cc(N3CCN(C)CC3)nc(Sc3ccc(NC(=O)C4CC4)cc3)n2)n[nH]1 [Tozasertib] (partner 0.1 µM)
Summary of the method: (§1)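 Relative viability is defined as nuclei in treated wells over nuclei in vehicle wells. Duplicate plates were run and medians reported. Lung cancer cell lines in 1536-well plates were dosed by pin tool one day after seeding, with one drug or with a fixed anchor-drug dose plus five library-drug doses (not always all listed) in √10 steps, and nuclei were counted after 5 days.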

Mirin + Linsitinib = compound: N=C1NC(=O)/C(=C/c2ccc(O)cc2)S1 [Mirin] + C[C@]1(O)C[C@@H](c2nc(-c3ccc4ccc(-c5ccccc5)nc4c3)c3c(N)nccn32)C1 [Linsitinib] (partner 1 µM)
Summary of the method: as §1

[1] = compound: CCn1c(-c2nonc2N)nc2cnc(Oc3cccc(NC(=O)c4ccc(OCCN5CCOCC5)cc4)c3)cc21 + CS(=O)(=O)CCNCc1ccc(-c2ccc3ncnc(Nc4ccc(OCc5cccc(F)c5)c(Cl)c4)c3c2)o1 [Lapatinib] (partner 2 µM)
Summary of the method: as §1

[2] = compound: CCC1=CN=CN=C1N2CCN(CC2)CC3=NC4=C(N3)C=C(C=C4)C(F)(F)F + C[C@@H](Oc1cc(-c2cnn(C3CCNCC3)c2)cnc1N)c1c(Cl)ccc(F)c1Cl [Crizotinib] (partner 1 µM)
Summary of the method: as §1

Cell Line | relative viability (Mirin + Tozasertib; first compound 0.25 µM) | relative viability (Mirin + Tozasertib; first compound 0.7906 µM) | relative viability (Mirin + Tozasertib; first compound 2.5 µM) | relative viability (Mirin + Tozasertib; first compound 7.906 µM) | relative viability (Mirin + Tozasertib; first compound 25 µM) | relative viability (Mirin + Linsitinib; first compound 0.25 µM) | relative viability (Mirin + Linsitinib; first compound 0.7906 µM) | relative viability (Mirin + Linsitinib; first compound 2.5 µM) | relative viability (Mirin + Linsitinib; first compound 7.906 µM) | relative viability (Mirin + Linsitinib; first compound 25 µM) | relative viability ([1]; first compound 0.04 µM) | relative viability ([1]; first compound 0.1265 µM) | relative viability ([1]; first compound 0.4 µM) | relative viability ([1]; first compound 1.265 µM) | relative viability ([1]; first compound 4 µM) | relative viability ([2]; first compound 0.04 µM) | relative viability ([2]; first compound 0.1265 µM) | relative viability ([2]; first compound 0.4 µM) | relative viability ([2]; first compound 1.265 µM) | relative viability ([2]; first compound 4 µM)
201T | 0.929 | 0.982 | 0.88 | 0.881 | 0.599 | 1 | 1.04 | 1.01 | 1.02 | 1.09 | 1.07 | 0.967 | 0.78 | 0.911 | 0.868 | 0.985 | 0.993 | 1.03 | 1.02 | 1.12
A549 | – | – | – | – | – | 0.508 | 0.58 | 0.544 | 0.503 | 0.511 | 1.25 | 0.916 | 0.884 | 0.118 | 0.107 | 0.734 | 0.801 | 0.816 | 0.829 | 0.827
A-427 | 0.196 | – | 0.202 | 0.143 | 0.158 | 1.11 | – | 1.19 | 1.19 | 1.2 | 1.2 | 1.04 | 0.903 | 0.993 | 0.582 | 0.918 | 0.825 | 1.04 | 0.714 | 0.865
ABC-1 | 0.167 | 0.235 | 0.197 | 0.223 | 0.193 | 0.771 | 0.93 | 0.773 | 1.04 | 0.455 | 1.3 | 0.997 | – | – | 1.08 | 1.09 | 1.04 | 1.38 | 1.11 | 0.852
BEN | 0.438 | 0.584 | 0.523 | 0.553 | 0.456 | 0.821 | 1.37 | 0.973 | 0.809 | 0.502 | 0.627 | 0.695 | 0.348 | 0.279 | 0.317 | 0.924 | 0.868 | 0.963 | 0.532 | 0.662
CAL-12T | 0.282 | – | 0.317 | 0.283 | 0.222 | 0.856 | 0.726 | 0.825 | 0.856 | 0.838 | 1.25 | 0.817 | 0.849 | – | 0.685 | 0.629 | 0.621 | 0.805 | 0.808 | 1.12
COR-L23 | 0.162 | 0.213 | 0.17 | 0.15 | 0.132 | 1.01 | 1.16 | 1.02 | 0.955 | 0.892 | 1.16 | 0.714 | 0.335 | 0.198 | 0.143 | 0.58 | 0.621 | 0.66 | 0.694 | 0.975
COR-L 105 | 0.341 | 0.384 | 0.343 | 0.401 | 0.309 | 0.984 | 1.02 | 1.13 | 1.09 | 0.846 | 0.327 | 0.412 | 0.278 | 0.288 | 0.297 | 0.861 | 0.795 | 0.972 | 0.922 | 1.24
Calu-6 | – | – | – | – | – | 0.914 | 0.908 | 0.903 | 0.856 | 0.88 | 1.22 | 0.932 | 0.985 | 0.616 | 0.517 | 0.742 | 0.707 | 0.832 | 0.905 | 0.982
ChaGo-K-1 | 0.234 | 0.222 | 0.241 | 0.215 | 0.171 | – | – | – | – | – | – | – | – | – | – | – | 1.15 | 1.21 | 1.12 | 1.16
EBC-1 | – | – | – | – | – | 1.06 | 1.07 | 0.872 | 0.875 | 0.974 | 0.224 | 0.206 | 0.196 | 0.179 | 0.197 | 0.186 | 0.169 | 0.218 | 0.196 | 0.169
EKVX | 0.397 | 0.323 | 0.368 | 0.322 | 0.345 | 1.11 | 0.959 | 1.03 | 0.933 | 1 | 0.446 | 0.221 | 0.177 | 0.197 | 0.229 | 1.22 | 0.728 | 0.915 | 0.873 | 1.07
EMC-BAC-2 | 0.274 | 0.28 | 0.284 | 0.228 | 0.162 | 0.793 | 0.825 | 0.883 | 0.853 | 0.815 | 0.931 | 0.955 | 0.543 | 0.645 | 0.588 | 0.779 | 0.734 | 0.77 | 0.889 | 1.03
EPLC-272H | 0.267 | – | 0.262 | 0.127 | 0.15 | 1.1 | – | 1.16 | 0.978 | 0.831 | 1.46 | 0.903 | 0.796 | 0.187 | 0.827 | 0.81 | 0.867 | 0.89 | 0.959 | 1.19
H3255 | 0.677 | 0.639 | 0.698 | 0.555 | 0.602 | 0.9 | 0.886 | 0.972 | 0.954 | 0.97 | 0.293 | 0.305 | 0.237 | 0.271 | 0.256 | 0.864 | 0.888 | 0.794 | 0.757 | 0.941
HARA | 0.126 | – | 0.107 | 0.0865 | 0.0791 | 0.935 | 0.994 | 0.988 | 1.02 | 0.738 | 0.826 | 0.732 | 0.27 | 0.217 | 0.213 | 1.06 | 0.972 | 1.01 | 1.03 | 1.18
HCC-15 | 0.336 | 0.344 | 0.359 | 0.202 | 0.177 | 0.791 | 0.849 | 0.897 | 0.779 | 0.534 | 0.962 | 0.736 | 0.779 | 0.628 | 0.745 | 0.75 | 0.78 | 0.819 | 0.946 | 1.06
HCC-44 | 1.06 | 0.433 | 0.93 | 0.824 | 0.404 | 0.64 | 0.789 | 0.703 | 0.711 | 0.501 | 1.07 | 1.1 | 0.622 | 0.342 | 0.368 | 0.83 | 0.774 | 0.874 | 0.762 | 0.843
